In US20240174618A1, “SUBSTITUTED (2-HETEROARYLOXYPHENYL)SULFONATES, SALTS THEREOF AND THEIR USE AS HERBICIDAL AGENTS” (Bayer Aktiengesellschaft, priority 2021, published 2024):

What was measured:
Assay type in all cases: in vivo
[1] = system: Abutilon theophrasti (ABUTH); test: A. Herbicidal pre-emergence efficacy, ABUTH; conditions: scored visually after about 3 weeks vs untreated controls
Outline: (§1)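 Pre-emergence soil-surface spray in sandy loam pots, WP/EC in water plus 0.5% additive, 600 L/ha. Visual % damage rating after about 3 weeks in greenhouse vs. untreated; 0% = control-like, 100% = dead plants. Rates up to 1280 g/ha.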

[2] = system: Alopecurus myosuroides (ALOMY); test: A. Herbicidal pre-emergence efficacy, ALOMY; conditions: scored visually after about 3 weeks vs untreated controls
Outline: as §1

[3] = system: Veronica persica (VERPE); test: A. Herbicidal pre-emergence efficacy, VERPE; conditions: for Pre-emergence efficacy against VERPE: dosage 80 g/ha
Outline: as §1

[4] = system: Echinochloa crus-galli (ECHCG); test: B. Herbicidal post-emergence efficacy, ECHCG; conditions: rated visually after about 3 weeks
Outline: (§2)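 Visual percent efficacy relative to untreated controls (0% unaffected, 100% dead), scored roughly 3 weeks after foliar spraying of one-leaf-stage pot-grown plants with WP or EC preparations at application rates up to 1280 g/ha in 600 L/ha water containing 0.5% additive.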

[5] = system: Kochia scoparia (KCHSC); test: B. Herbicidal post-emergence efficacy, KCHSC; conditions: for Post-emergence efficacy against KCHSC in %: rated visually after about 3 weeks; for Post-emergence efficacy against KCHSC: 1280 g/ha
Outline: as §2

[6] = system: Amaranthus retroflexus (AMARE); test: C. Herbicidal pre-emergence efficacy, AMARE; conditions: scored after about 3 weeks
Outline: (§3)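 Pre-emergence test: formulated compounds sprayed as aqueous suspension or emulsion with 0.5% additive at 600 l/ha onto soil covering sown seeds, at rates corresponding to 320 g/ha or less. After about 3 weeks in greenhouse, efficacy scored visually as percent versus untreated controls (100% = plants dead).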

[7] = system: Echinochloa crus-galli (ECHCG); test: C. Herbicidal pre-emergence efficacy, ECHCG; conditions: scored after about 3 weeks
Outline: as §3

[8] = system: Pharbitis purpurea (PHBPU); test: E. Herbicidal post-emergence efficacy, PHBPU
Outline: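 Greenhouse post-emergence spray, one-leaf stage (2–3 wk after sowing, sandy loam); WP/EC formulation, aqueous + 0.5% additive, 600 l/ha water; rates 320 g/ha or less. Visual rating ~3 wk later vs untreated; 0% = control-like, 100% = dead.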

Row | SMILES | Pre-emergence efficacy against ABUTH ([1]; 320 g/ha) | Pre-emergence efficacy against ABUTH ([1]; 1280 g/ha) | Pre-emergence efficacy against ALOMY ([2]; 1280 g/ha) | Pre-emergence efficacy against VERPE in % ([3]; 320 g/ha) | Pre-emergence efficacy against VERPE in % ([3]; 1280 g/ha) | Pre-emergence efficacy against VERPE [3] | Post-emergence efficacy against ECHCG in % ([4]; 80 g/ha) | Post-emergence efficacy against ECHCG in % ([4]; 320 g/ha) | Post-emergence efficacy against ECHCG in % ([4]; 1280 g/ha) | Post-emergence efficacy against KCHSC in % ([5]; 80 g/ha) | Post-emergence efficacy against KCHSC in % ([5]; 320 g/ha) | Post-emergence efficacy against KCHSC [5] | Pre-emergence efficacy against AMARE ([6]; 80 g/ha) | Pre-emergence efficacy against AMARE ([6]; 320 g/ha) | Pre-emergence efficacy against ECHCG ([7]; 320 g/ha) | Post-emergence efficacy against PHBPU in % ([8]; application rate 80 g/ha) | Post-emergence efficacy against PHBPU in % ([8]; application rate 320 g/ha) | Pre-emergence efficacy against ABUTH ([1]; 80 g/ha) | Pre-emergence efficacy against ALOMY ([2]; 320 g/ha) | Pre-emergence efficacy against ECHCG ([7]; 80 g/ha)
1 | O=S(=O)(CCC(F)(F)F)Oc1c(Cl)cccc1Oc1ncc(Br)cn1 [Example I-32] | 90% | 100% | 90% | 90% | 100% | 90% | 90% | 90% | 100% | 100% | 100% | 100% | 100% | 100% | 90% | 80% | 80% |  |  | 
2 | Cc1cccc(Oc2ncc(F)cn2)c1OS(=O)(=O)CCC(F)(F)F [Example I-45] | 100% | 100% | 100% | 100% | 100% |  |  | 100% | 100% |  | 90% | 100% | 80% | 100% | 100% |  |  | 100% | 90% | 100%
3 | O=S(=O)(CCC(F)(F)F)Oc1c(Cl)cccc1Oc1ncc(Cl)cn1 [Example I-38] | 100% | 100% | 100% | 90% | 100% | 90% |  |  |  |  | 90% | 90% | 100% | 100% | 100% | 100% | 100% | 100% |  | 100%
4 | O=S(=O)(CCCC(F)(F)F)Oc1ccccc1Oc1ncc(Cl)cn1 [Example I-10] | 100% | 100% | 90% | 100% | 100% | 90% | 100% | 100% | 100% | 90% | 90% | 90% | 100% | 100% | 100% | 100% | 100% | 100% | 90% | 100%
5 | O=S(=O)(CCCC(F)(F)F)Oc1c(F)cccc1Oc1ncc(Br)cn1 [Example I-41] | 100% | 100% | 100% | 100% | 100% | 90% |  |  |  | 90% | 90% | 90% | 100% | 100% | 100% | 100% | 100% |  |  | 100%
6 | O=S(=O)(CCCCl)Oc1ccccc1Oc1ncc(Cl)cn1 [Example I-2] | 100% | 100% | 100% | 100% | 100% | 100% | 90% | 100% | 100% | 100% | 100% | 100% | 100% | 100% | 100% |  | 100% | 100% | 100% | 90%
7 | O=S(=O)(CCC(F)(F)F)Oc1c(F)cccc1Oc1ncc(Br)cn1 [Example I-40] | 100% | 100% | 100% | 100% | 100% | 100% |  |  |  | 90% | 90% | 90% | 100% | 100% | 100% | 100% | 100% | 100% | 90% | 100%
8 | CCCCS(=O)(=O)Oc1ccccc1Oc1ncc(Cl)cn1 [Example I-6] | 100% | 100% | 90% |  | 90% |  |  | 90% | 90% | 90% | 90% | 90% | 100% | 100% | 100% | 80% | 100% | 100% |  | 100%
9 | O=S(=O)(CCCC(F)F)Oc1c(F)cccc1Oc1ncc(Cl)cn1 [Example I-56] | 100% | 100% | 100% | 100% | 100% |  |  | 90% | 90% | 90% | 90% | 90% | 100% | 100% | 100% | 100% | 100% | 100% | 90% | 100%
10 | O=S(=O)(CCCCl)Oc1ccccc1Oc1ncc(F)cn1 [Example I-5] | 100% | 100% | 90% | 100% | 100% | 90% | 90% | 100% | 100% | 100% | 100% | 100% | 100% | 100% | 100% |  | 80% | 100% |  | 100%
11 | O=S(=O)(CCCC(F)(F)C(F)(F)F)Oc1c(F)cccc1Oc1ncc(Cl)cn1 [Example I-68] |  | 100% | 90% | 100% | 100% |  |  | 90% | 100% | 100% | 100% | 100% | 100% | 100% | 90% | 80% | 90% |  |  | 
12 | O=S(=O)(CCCC(F)(F)F)Oc1c(Cl)cccc1Oc1ncc(Cl)cn1 [Example I-39] | 100% | 100% | 100% | 100% | 100% | 90% |  |  |  | 90% | 90% | 90% | 100% | 100% | 100% | 90% | 100% | 90% | 90% | 90%
13 | O=S(=O)(CC1CC1(Cl)Cl)Oc1c(F)cccc1Oc1ncc(Cl)cn1 (stereo not shown) [Example I-57] | 90% | 100% | 100% | 90% | 100% |  |  | 90% | 90% | 90% | 90% | 90% |  |  |  |  |  |  |  | 
